Experimental data taken from patent US20230255934A1, “NURR1 RECEPTOR MODULATORS AND USES THEREOF” (The Regents of the University of California, priority 2020, published 2023).
“Also recorded” adds a separate entry of the source.

What was measured:
[1] = target: T1, full-length Nurr1 (NBRE response element) (Mus musculus, UniProt Q06219); assay: Full-length Nurr1 NBRE luciferase reporter assay in MN9D cells; format: cell-based; settings: 6 h treatment
T1 construct: a cell line derived from dopaminergic neurons which endogenously expresses full length Nurr1 and its target genes; endogenous in cells; host or cells: MN9D TET-ON cells
Protocol: Luciferase Reporter Assays. These assays were executed using standard protocols. MN9D TET-ON cells (P5) were grown for 60-72 h (see above) before being seeded at 1-10^5 cell/well in 24-well plate in DMEM/F12+5% TET-ON approved FBS 3 h before transfection. Cells were transfected using Lipofectamine 2000 (Invitrogen) and plasmid DNAs according to manufacturer's instructions. Lipofectamine/DNA complexes were prepared in Opti-Mem medium (Gibco) and incubated with cells overnight. The Nurr1-LBD_Gal4-DBD expressing plasmid was prepared by subcloning the Nurr1 LBD fragment into […] plasmid (Clontech) containing GAL4 DBD. The reporter plasmid pGL4.35 (luc2P/9XGAL4 UAS/Hygro) Vector (Promega) contains nine repeats of GAL4 UAS (Upstream Activator Sequence) and drives transcription of the luciferase reporter gene luc2P in response to binding of Nurr-LBD_Gal4-DBD chimeric protein. The pRL-null (Promega) plasmid expressing renilla luciferase was used as an internal control. […] Alternatively, cells were co-transfected with the reporter plasmid NBREx3-POMC-Luc containing three copies of the NBRE sequence ([NT] ID NO:23)) subcloned into the pXP1-luc plasmid containing the minimal (positions -34 to +63) POMC promoter as described previously^7, and the pRL-null plasmid. […] Transfected cells were treated with increasing concentrations of 5-chloroindole or vehicle only for 6 h, after which time the media was aspirated and luciferase activity was measured. Cells from each well were incubated for 15 min with 220 μL/well of Dual-Glo® Luciferase Reagent (Promega) at room temperature upon rotation on the orbital shaker. […] Resulting solutions were transferred to a white opaque 96-well plate (65 μL/well; 3 wells/sample) and firefly luciferase activity was measured using Veritas Microplate Luminometer (Turner BioSystems, Sunnyvale, Calif.). […] Renilla luciferase activity was measured after 20 min of incubation of the plate inside the luminometer. Experimental values are expressed as the average of firefly/renilla luciferase activity±standard deviation (for three independent biological replicates). […]

[2] = target: T2, Nurr1-LBD_Gal4-DBD chimeric protein (Homo sapiens, UniProt P43354); assay: Nurr1-LBD_Gal4-DBD luciferase reporter assay in MN9D cells; format: cell-based; settings: 6 h treatment
T2 construct: prepared by subcloning the Nurr1 LBD fragment into […] plasmid (Clontech) containing GAL4 DBD; expressed in transfected cells; host or cells: MN9D TET-ON cells
Protocol: Luciferase Reporter Assays. These assays were executed using standard protocols. MN9D TET-ON cells (P5) were grown for 60-72 h (see above) before being seeded at 1-10^5 cell/well in 24-well plate in DMEM/F12+5% TET-ON approved FBS 3 h before transfection. Cells were transfected using Lipofectamine 2000 (Invitrogen) and plasmid DNAs according to manufacturer's instructions. Lipofectamine/DNA complexes were prepared in Opti-Mem medium (Gibco) and incubated with cells overnight. The Nurr1-LBD_Gal4-DBD expressing plasmid was prepared by subcloning the Nurr1 LBD fragment into […] plasmid (Clontech) containing GAL4 DBD. […] Transfected cells were treated with increasing concentrations of 5-chloroindole or vehicle only for 6 h, after which time the media was aspirated and luciferase activity was measured. […] Resulting solutions were transferred to a white opaque 96-well plate (65 μL/well; 3 wells/sample) and firefly luciferase activity was measured using Veritas Microplate Luminometer (Turner BioSystems, Sunnyvale, Calif.). […] Renilla luciferase activity was measured after 20 min of incubation of the plate inside the luminometer. Experimental values are expressed as the average of firefly/renilla luciferase activity±standard deviation (for three independent biological replicates). […]

[3] = Dynamic light scattering assay of nano-aggregation; format: physicochemical; settings: MST buffer with Pluronic F127
Protocol: Measurements were made using a DynaPro MS/X (Wyatt Technology) with a 55 mW laser at 826.6 nm, using a detector angle of 90°. The laser power was 100%, and the acquisition time was 2 s. Histograms represent the average of three independent data sets, each with at least 10 measurements.

T2 sequence (P43354 360-595 limits assumed, change not shown): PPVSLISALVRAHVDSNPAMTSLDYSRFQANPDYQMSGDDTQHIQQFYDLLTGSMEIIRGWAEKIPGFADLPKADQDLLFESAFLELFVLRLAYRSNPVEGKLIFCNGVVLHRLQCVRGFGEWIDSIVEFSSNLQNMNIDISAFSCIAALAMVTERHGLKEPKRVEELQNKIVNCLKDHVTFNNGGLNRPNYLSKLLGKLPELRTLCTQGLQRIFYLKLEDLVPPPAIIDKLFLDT
T1 sequence (Q06219 whole entry): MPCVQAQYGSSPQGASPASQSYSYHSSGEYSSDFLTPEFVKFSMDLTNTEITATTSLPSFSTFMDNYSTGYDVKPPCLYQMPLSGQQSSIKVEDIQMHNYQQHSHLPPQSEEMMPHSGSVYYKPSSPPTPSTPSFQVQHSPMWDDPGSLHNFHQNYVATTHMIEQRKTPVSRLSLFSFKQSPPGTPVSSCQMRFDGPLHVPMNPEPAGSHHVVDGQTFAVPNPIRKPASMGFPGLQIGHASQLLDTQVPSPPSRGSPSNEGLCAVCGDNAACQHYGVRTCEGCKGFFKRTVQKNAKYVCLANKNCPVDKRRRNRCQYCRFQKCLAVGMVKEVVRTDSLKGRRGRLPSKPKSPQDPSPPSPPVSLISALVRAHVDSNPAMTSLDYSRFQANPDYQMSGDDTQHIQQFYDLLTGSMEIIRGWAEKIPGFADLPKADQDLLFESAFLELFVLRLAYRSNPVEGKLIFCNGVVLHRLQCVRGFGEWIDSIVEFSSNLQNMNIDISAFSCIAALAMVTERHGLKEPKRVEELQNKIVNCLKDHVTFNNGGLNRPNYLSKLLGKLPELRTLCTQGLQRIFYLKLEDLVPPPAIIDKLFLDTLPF

Structure (SMILES): Clc1ccc2[nH]ccc2c1 [5-chloroindole]
- Luciferase production, full-length Nurr1 NBRE reporter [1]: stimulates production of luciferase; also recorded: stimulates the activity of Nurr1
- Luciferase production, Nurr1-LBD_Gal4-DBD reporter [2]: stimulates production of luciferase; also recorded: stimulates the activity of Nurr1
- Nano-aggregation properties [3]: minimal
